“And” between values parts separate entries of the source, which are not always exact repeats. Identical values can stand only once. The source made the active and inactive calls.
Key:
[1] = molecular target: T1, RNA-binding protein pos-1 (Caenorhabditis elegans, UniProt G5EF15); assay: disruptors of C. elegans POS-1 RNA interaction – biochemical, fluorescence polarization, dose response (AID 1964);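 also: purified POS-1 fused to maltose binding protein made in E. coli; potency of compounds blocking POS-1 binding to fluorescent RNA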
T1 sequence (G5EF15 whole entry): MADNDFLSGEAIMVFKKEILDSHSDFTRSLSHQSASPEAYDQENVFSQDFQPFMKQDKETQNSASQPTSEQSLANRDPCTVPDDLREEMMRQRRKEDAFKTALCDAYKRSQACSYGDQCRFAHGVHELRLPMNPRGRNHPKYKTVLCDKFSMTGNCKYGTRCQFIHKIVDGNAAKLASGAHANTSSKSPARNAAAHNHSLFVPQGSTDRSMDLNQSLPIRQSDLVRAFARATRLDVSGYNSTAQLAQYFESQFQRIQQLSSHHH

[2] = molecular target: T2, Zinc finger protein mex-5 (Caenorhabditis elegans, UniProt Q9XUB2); assay: potency of MEX-5 RNA-binding blockers – biochemical, C. elegans, fluorescence polarization, dose response (AID 1960)
T2 sequence (Q9XUB2 whole entry): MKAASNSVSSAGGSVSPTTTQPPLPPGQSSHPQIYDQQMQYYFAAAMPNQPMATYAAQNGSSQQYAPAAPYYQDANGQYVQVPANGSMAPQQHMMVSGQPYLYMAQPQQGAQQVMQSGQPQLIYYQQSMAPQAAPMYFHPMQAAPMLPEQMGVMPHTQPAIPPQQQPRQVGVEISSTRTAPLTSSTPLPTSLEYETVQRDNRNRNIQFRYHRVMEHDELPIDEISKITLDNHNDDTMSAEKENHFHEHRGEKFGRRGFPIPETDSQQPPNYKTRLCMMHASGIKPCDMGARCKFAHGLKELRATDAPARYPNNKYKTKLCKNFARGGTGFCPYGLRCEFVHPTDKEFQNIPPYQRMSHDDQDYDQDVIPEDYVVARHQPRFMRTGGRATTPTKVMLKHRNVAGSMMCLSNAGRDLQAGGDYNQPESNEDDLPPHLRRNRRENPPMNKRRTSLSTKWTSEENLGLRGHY

[3] = Luminescence Cell-Based Dose Confirmation HTS to Identify Activators of 5'UTR Stem-Loop Driven Alpha-Synuclein mRNA Translation in H4 Neuroglioblastoma Cells. [Related pubchem assays: 1829 (Project Summary), 1814 (Primary HTS)]; type: functional
[4] = Luminescence Cell-Based Dose Response HTS to Identify Activators of Luciferase Translation or Activity in H4 […] Cells. [Related pubchem assays: 1829 (Project Summary), 1814 (Primary HTS)]; type: functional
[5] = molecular target: T3, Heat shock factor protein 1 (Mus musculus, UniProt P38532); assay: enhancement of HSF1-driven luciferase signal – cell-based, NIH3T3, luminescence, dose retest, confirmation (AID 435004); type: functional;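 also: stress induced by proteasome inhibitor MG132 added 30 min after compound; luciferase reporter driven by HSF1 response element in NIH3T3 cells; actives raise luminescence as potentiators of the MG132 stress response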
T3 sequence (P38532 whole entry): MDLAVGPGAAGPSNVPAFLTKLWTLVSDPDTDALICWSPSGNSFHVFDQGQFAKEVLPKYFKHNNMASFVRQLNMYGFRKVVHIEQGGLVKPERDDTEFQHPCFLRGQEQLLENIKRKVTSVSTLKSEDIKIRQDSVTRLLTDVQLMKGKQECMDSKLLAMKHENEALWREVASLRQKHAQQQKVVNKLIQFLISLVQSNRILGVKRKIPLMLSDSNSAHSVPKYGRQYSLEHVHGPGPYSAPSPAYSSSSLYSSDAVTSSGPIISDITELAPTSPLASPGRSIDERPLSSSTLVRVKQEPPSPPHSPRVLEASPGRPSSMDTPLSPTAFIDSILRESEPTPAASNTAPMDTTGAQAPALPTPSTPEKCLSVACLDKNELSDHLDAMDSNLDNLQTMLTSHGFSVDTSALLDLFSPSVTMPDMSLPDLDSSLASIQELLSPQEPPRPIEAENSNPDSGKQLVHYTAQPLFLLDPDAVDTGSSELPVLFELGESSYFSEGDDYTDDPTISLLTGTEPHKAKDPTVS

Cytochrome P450 2D6 = Cytochrome P450 2D6 (Homo sapiens, UniProt P10635);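 also: CYP2D6 member of a cytochrome P450 panel assay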
Chain of Cytochrome P450 2D6 (P10635 whole entry): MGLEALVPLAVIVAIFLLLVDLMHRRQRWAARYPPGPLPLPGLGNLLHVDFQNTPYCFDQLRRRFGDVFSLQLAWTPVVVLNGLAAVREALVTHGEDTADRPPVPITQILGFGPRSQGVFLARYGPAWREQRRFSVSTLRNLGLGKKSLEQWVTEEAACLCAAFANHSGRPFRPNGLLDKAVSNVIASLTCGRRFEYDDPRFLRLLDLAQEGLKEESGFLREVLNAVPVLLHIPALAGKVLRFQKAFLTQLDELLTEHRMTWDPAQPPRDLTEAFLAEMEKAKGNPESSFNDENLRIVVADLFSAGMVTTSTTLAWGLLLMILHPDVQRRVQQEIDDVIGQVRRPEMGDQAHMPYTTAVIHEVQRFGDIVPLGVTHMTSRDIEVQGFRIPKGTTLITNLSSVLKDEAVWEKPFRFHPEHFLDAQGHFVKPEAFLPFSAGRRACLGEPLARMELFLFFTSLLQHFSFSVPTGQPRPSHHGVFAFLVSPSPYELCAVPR

Protein skinhead-1 = molecular target: T4, Protein skinhead-1 (Caenorhabditis elegans, UniProt P34707); type: functional
T4 sequence (P34707 whole entry): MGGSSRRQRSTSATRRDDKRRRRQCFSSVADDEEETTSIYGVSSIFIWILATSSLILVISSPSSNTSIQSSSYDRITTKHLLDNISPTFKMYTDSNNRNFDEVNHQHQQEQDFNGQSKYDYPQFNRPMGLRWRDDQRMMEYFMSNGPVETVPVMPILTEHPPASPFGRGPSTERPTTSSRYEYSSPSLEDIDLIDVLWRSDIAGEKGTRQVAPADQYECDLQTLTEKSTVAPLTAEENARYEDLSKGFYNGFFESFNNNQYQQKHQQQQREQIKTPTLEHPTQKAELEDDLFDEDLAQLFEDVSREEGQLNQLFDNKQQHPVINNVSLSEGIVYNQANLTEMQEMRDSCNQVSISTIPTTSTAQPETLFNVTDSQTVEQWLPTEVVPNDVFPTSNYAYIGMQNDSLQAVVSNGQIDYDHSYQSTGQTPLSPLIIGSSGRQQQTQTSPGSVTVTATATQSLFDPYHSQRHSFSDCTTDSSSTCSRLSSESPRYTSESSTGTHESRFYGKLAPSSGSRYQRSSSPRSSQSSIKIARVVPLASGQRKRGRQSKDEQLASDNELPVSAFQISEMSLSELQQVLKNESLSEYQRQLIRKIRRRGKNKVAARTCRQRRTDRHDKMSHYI

[6] = P. falciparum Dd2 growth inhibitors, dose response, SYBR Green, cherry-picked samples (AID 1159567); type: functional, cell-based
INS1 = assay: INS-1E survival protection against cytokine death – cell-based, luminescence, retest, dose response (AID 449756); type: functional; settings: Rattus norvegicus;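 also: cell death triggered by IL-1 beta plus TNF-alpha plus IFN-gamma mixture; protective hits raise ATP signal compared with cytokine alone wells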
Cytochrome P450 3A4 = Cytochrome P450 3A4 (Homo sapiens, UniProt P08684);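 also: CYP3A4 tested as one member of a cytochrome P450 panel screen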
Chain of Cytochrome P450 3A4 (P08684 whole entry): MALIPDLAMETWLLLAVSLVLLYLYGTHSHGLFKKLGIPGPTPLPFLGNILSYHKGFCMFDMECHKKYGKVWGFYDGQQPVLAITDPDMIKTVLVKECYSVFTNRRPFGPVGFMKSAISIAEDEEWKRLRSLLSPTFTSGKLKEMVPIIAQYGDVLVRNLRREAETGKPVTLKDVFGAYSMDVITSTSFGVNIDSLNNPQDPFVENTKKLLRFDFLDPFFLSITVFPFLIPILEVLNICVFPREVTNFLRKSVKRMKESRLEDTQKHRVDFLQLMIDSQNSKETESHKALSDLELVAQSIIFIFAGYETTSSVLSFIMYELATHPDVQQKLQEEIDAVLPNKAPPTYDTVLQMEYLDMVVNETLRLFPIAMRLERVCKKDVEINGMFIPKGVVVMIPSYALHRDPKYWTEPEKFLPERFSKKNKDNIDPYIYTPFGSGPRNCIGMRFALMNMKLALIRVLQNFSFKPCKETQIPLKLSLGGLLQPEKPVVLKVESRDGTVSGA

Cytochrome P450 1A2 = molecular target: T5, Cytochrome P450 1A2 (Homo sapiens, UniProt P05177);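 also: PubChem cytochrome P450 panel assay, CYP1A2 panel member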
T5 sequence (P05177 whole entry): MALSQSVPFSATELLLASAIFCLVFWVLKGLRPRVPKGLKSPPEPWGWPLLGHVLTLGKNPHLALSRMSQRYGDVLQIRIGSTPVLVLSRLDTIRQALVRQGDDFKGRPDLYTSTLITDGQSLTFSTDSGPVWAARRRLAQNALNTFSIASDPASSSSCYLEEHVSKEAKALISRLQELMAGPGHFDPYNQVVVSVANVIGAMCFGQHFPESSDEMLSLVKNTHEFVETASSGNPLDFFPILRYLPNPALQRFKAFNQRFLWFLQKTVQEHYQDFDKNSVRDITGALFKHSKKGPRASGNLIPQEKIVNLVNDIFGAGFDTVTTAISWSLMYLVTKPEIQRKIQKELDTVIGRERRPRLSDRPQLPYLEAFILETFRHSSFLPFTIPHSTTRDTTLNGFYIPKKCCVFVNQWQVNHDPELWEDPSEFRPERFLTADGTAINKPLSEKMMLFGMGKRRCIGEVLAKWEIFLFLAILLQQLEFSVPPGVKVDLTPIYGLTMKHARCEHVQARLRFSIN

Cytochrome P450 2C19 = Cytochrome P450 2C19 (Homo sapiens, UniProt P33261); assay: Cytochrome panel assay with activity outcomes. Panel member name: p450-cyp2c19 Compounds with AC50 equal or less than 10 uM are considered active; type: functional; settings: read-out: AC50
Chain of Cytochrome P450 2C19 (P33261 whole entry): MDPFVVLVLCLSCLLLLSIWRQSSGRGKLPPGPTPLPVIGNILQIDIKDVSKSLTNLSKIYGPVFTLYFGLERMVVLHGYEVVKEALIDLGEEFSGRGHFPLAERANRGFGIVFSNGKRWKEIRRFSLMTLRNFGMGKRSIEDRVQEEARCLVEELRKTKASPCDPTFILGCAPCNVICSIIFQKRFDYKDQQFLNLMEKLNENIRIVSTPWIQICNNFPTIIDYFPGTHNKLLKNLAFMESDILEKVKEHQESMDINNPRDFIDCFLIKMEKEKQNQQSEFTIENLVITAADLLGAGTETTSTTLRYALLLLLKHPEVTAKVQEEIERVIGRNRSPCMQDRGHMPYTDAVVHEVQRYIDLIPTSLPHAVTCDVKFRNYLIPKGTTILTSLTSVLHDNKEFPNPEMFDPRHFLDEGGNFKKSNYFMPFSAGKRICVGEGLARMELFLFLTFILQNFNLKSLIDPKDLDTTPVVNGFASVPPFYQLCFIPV

Cytochrome P450 2C9 = Cytochrome P450 2C9 (Homo sapiens, UniProt P11712)
Chain of Cytochrome P450 2C9 (P11712 whole entry): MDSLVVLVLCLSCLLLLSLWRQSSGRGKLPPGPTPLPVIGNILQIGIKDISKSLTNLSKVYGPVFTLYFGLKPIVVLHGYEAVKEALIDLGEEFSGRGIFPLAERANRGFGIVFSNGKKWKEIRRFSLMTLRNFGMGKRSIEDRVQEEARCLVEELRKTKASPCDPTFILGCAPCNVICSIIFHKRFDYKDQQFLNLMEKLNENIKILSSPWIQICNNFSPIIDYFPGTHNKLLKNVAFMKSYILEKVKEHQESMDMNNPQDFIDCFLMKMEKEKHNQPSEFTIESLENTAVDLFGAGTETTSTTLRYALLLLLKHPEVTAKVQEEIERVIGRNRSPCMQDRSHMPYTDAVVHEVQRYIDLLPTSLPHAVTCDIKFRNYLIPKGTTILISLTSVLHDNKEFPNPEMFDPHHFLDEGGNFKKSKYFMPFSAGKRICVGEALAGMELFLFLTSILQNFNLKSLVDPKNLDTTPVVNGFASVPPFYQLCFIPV

In the case of `CC(=O)n1c(/C=N/c2ccccc2)c(O)c2ccccc21`, the EC50 [1] is reported as > 300 µM (not active) and the EC50 [2] is reported as > 300 µM (not active).

In the case of `Cc1ccccc1/C=C1\CCCc2ccccc2C1=O`, the EC50 [3] is reported as 0.172 µM (active) and the EC50 [4] is reported as 0.328 µM (active).

For `CSc1ccc(Cl)c(C(=O)OCC(=O)N(C)CCC#N)c1`, the EC50 [5] was > 260 µM (inactive).

For `C[C@H](N)Cc1c[nH]c2ccc(O)cc12`, the AC50 (Cytochrome P450 2D6) was 15.8 µM (inconclusive) and 39.8 µM (inconclusive).

With `CCN(CC(=O)Nc1ccccc1C(F)(F)F)C(=O)c1ccc(NC(=O)c2cccs2)cc1` the IC50 (Protein skinhead-1) was > 100 µM (inactive).

For `CCOC(=O)/C=C/C(=O)N1CCc2ccccc21`, the EC50 [5] was 24.7 µM (active).

With `COc1cc(C2C3CN(C)CC=C3C(C#N)=C(N)C2(C#N)C#N)ccc1OC(C)C` (configuration not stated) the EC50 [1] was > 300 µM (inconclusive) and the EC50 [2] was 31.3 µM (active).

With `COc1ccccc1-c1ccc([C@@H]2[C@@H](CO)N3CCCCN(C(=O)c4ccncc4)C[C@@H]23)cc1` the AC50 [6] was 14.1 µM (active).

For `O=C(N/N=C\c1cc([N+](=O)[O-])ccc1N1CCCC1)c1ccccn1`, the EC50 [1] was 149 µM (inconclusive) and the EC50 [2] was 70.5 µM (inconclusive).

With `Cc1ccc(-c2ccccc2)n1-c1ccc(C(=O)O)cc1` the EC50 [1] was > 300 µM (not active) and the EC50 [2] was > 300 µM (not active).

For `O=C(C1=C[C@@H](c2ccc(C(F)(F)F)cc2)C[C@@H](OCCCCO)O1)N1CCN(Cc2ccccc2)CC1`, the AC50 (INS1) was 5.94 µM (active).

In the case of `Cc1nc(Sc2ccc(Br)cc2)c(C#N)c(C)c1[N+](=O)[O-]`, the EC50 [5] is reported as 125 µM (active).

In the case of `CCCCn1nnnc1NCc1ccc(C)s1`, the IC50 (Protein skinhead-1) is reported as > 100 µM (inactive).

With `COc1ccc([C@H]2CC(=O)C=C(c3ccnc4ccc(Cl)cc34)C2)cc1` the AC50 (INS1) was 2.64 µM (active).

In the case of `COc1cccc(Cn2c(=O)c(-c3ccc(Cl)cc3)nc3cnc(N4CCNCC4)nc32)c1`, the AC50 (Cytochrome P450 2D6) is reported as 39.8 µM (inconclusive) and the AC50 (Cytochrome P450 3A4) is reported as 15.8 µM (inconclusive).

With `COc1ccc(C(=O)N(C)CC(O)c2ccccc2)cc1OC1CCN(C(C)=O)CC1` (configuration not stated) the EC50 [5] was > 260 µM (inactive).

With `O=C(O)CCCCCNC(=O)c1ccncc1` the AC50 (Cytochrome P450 1A2) was 0.01 µM (inconclusive), the AC50 (Cytochrome P450 2C19) was 39.8 µM (inconclusive) and the AC50 (Cytochrome P450 2C9) was 25.1 µM (inconclusive).

With `COc1ccccc1CCn1c(=O)c(-c2ccccc2)nc2cncnc21` the AC50 (Cytochrome P450 2D6) was 12.6 µM (inconclusive).

For `CCCNC(=O)N1[C@H](C#N)[C@@H](c2ccccc2C2=CCCC2)[C@@H]1CO`, the AC50 [6] was 7.07 µM (active).

In the case of `Fc1ccc(-c2nc(-c3cnccn3)no2)c(Cl)c1`, the IC50 (Protein skinhead-1) is reported as > 100 µM (inactive) and the EC50 [5] is reported as > 260 µM (inactive).

For `CN1CC[C@@]2(CCN3CCc4c(oc5ccccc45)[C@@H]3C2)N(C)C1=O`, the AC50 (Cytochrome P450 2D6) was 31.6 µM (inconclusive) and the AC50 (Cytochrome P450 3A4) was 12.6 µM (inconclusive).

In the case of `COC(=O)c1ccc(Nc2cc(C)nc3ncnn23)cc1`, the IC50 (Protein skinhead-1) is reported as > 100 µM (inactive).

From ChEMBL document CHEMBL1201862, “PubChem BioAssay data set” (2004)
